Key:
[1] = target: T1, dipeptidyl peptidase-IV enzyme (DPP-4) (Homo sapiens, UniProt P27487); assay: Continuous fluorometric DPP-4 inhibition assay with substrate Gly-Pro-AMC; format: biochemical; conditions: soluble human DPP-4, 50 μM Gly-Pro-AMC, pH 7.5, room temperature
T1 construct: soluble (transmembrane domain and cytoplasmic extension excluded) human protein; made in house; host or cells: baculovirus expression system (Bac-To-Bac, Gibco BRL)
Procedure: Inhibition constants are determined as follows. A continuous fluorometric assay is employed with the substrate Gly-Pro-AMC, which is cleaved by DPP-4 to release the fluorescent AMC leaving group. The kinetic parameters that describe this reaction are as follows: Km=50 μM; kcat=75 s^−1; kcat/Km=1.5×10^6 M^−1 s^−1. A typical reaction contains approximately 50 pM enzyme, 50 μM Gly-Pro-AMC, and buffer (100 mM HEPES, pH 7.5, 0.1 mg/ml BSA) in a total reaction volume of 100 μL. Liberation of AMC is monitored continuously in a 96-well plate fluorometer using an excitation wavelength of 360 nm and an emission wavelength of 460 nm. Under these conditions, approximately 0.8 μM AMC is produced in 30 minutes at 25 degrees C. The enzyme used in these studies was soluble (transmembrane domain and cytoplasmic extension excluded) human protein produced in a baculovirus expression system (Bac-To-Bac, Gibco BRL). […] To measure the dissociation constants for compounds, solutions of inhibitor in DMSO were added to reactions containing enzyme and substrate (final DMSO concentration is 1%). All experiments were conducted at room temperature using the standard reaction conditions described above. To determine the dissociation constants (Ki), reaction rates were fit by non-linear regression to the Michaelis-Menton equation for competitive inhibition. […]

hematopoiesis = conditions: mouse model of cyclophosphamide-induced neutropenia; WO 99/56753; cited from earlier work
DPP-4 = DPP-4 (Homo sapiens, UniProt P27487); conditions: cited from earlier work
Sequence of DPP-4 (P27487 whole entry, species assumed): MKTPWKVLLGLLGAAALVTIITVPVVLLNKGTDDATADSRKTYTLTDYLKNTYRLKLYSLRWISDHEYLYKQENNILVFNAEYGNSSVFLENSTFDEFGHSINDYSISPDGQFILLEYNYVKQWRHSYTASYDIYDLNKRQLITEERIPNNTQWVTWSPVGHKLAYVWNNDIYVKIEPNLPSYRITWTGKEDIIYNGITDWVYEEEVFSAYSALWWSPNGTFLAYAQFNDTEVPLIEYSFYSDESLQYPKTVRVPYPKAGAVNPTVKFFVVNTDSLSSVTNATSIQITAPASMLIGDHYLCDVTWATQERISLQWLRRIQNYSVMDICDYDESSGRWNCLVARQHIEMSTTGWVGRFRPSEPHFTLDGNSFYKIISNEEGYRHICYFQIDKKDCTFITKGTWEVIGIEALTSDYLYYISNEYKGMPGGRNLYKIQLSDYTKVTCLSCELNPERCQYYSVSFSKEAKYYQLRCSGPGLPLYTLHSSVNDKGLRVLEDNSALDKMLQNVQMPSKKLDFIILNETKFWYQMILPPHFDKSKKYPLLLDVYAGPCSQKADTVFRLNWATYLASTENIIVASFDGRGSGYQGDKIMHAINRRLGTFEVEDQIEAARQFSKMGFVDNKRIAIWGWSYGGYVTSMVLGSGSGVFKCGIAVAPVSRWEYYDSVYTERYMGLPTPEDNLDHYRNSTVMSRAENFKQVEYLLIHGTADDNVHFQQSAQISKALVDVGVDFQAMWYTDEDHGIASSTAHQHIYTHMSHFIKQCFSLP

T1 sequence (P27487 29-766 limits assumed): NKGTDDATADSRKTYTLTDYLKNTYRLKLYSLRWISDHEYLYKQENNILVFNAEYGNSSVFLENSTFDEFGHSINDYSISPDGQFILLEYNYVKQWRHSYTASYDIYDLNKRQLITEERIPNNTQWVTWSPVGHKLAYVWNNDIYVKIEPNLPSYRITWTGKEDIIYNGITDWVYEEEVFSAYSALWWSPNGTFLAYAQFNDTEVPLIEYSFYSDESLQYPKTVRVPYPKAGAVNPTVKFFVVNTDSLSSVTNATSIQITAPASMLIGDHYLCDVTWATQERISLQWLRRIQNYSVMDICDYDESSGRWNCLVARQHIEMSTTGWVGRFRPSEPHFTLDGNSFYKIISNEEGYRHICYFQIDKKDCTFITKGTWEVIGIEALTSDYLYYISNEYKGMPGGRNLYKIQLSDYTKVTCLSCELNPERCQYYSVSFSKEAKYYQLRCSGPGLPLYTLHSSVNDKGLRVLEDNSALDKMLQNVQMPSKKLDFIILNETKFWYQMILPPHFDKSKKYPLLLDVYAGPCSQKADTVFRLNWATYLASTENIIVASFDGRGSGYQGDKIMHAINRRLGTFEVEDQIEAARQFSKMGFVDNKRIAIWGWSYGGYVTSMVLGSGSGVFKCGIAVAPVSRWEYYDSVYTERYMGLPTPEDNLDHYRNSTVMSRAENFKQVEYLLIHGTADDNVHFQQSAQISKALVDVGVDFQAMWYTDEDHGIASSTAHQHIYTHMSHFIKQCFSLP

| SMILES | IC50 [1] [nM] | further results |
| --- | --- | --- |
| CS(=O)(=O)n1cc2c(n1)CN([C@H]1CO[C@H](c3sccc3F)[C@@H](N)C1)C2 (racemic) [Example 1] | 90 |  |
| CS(=O)(=O)n1cc2c(n1)CN([C@H]1CO[C@H](c3cc(F)cnc3F)[C@@H](N)C1)C2 [Example 2] | 100 |  |
| CC(C)[C@H](N)C(=O)N1CCC[C@H]1B(O)O [Val-Boro-Pro] |  | hematopoiesis (hematopoiesis): stimulated hematopoiesis |
| CC[C@H](C)[C@H](N)C(=O)N1CCC[C@H]1C(=O)N[C@H](C(=O)O)[C@@H](C)CC [diprotin A] |  | degradation of GRF in plasma to GRF[3-44] (DPP-4): prevented |

— US9073930B2, “Dipeptidyl peptidase-IV inhibitors for the treatment or prevention of diabetes” (Merck Sharp & Dohme Corp., priority 2012, dated 2015)
